# Laboratory results: paper PMC11550483 (2024)
# Target: SARS2 M^pro (Severe acute respiratory syndrome coronavirus 2, UniProt P0DTD1, P3395H)
# Format: biochemical, SARS-CoV-2
row,Compound,% inhibition (20 µM) biochemical [%]
1,"COc1cccc(NC(=O)Cn2c(=O)n(C)c(=O)n(-c3ccc(Oc4ccc(SC(F)(F)F)cc4)c(C)c3)c2=O)c1 [MWAC-0001087, COc1cccc(NC(=O)CN2C(=O)N(C)C(=O)N(C2=O)c3ccc(Oc4ccc(SC(F)(F)F)cc4)c(C)c3)c1]",3
2,"Cc1cc(Br)cc2c1N(C)C(=O)C2(O)CC(=O)c1ccc(Cl)cc1 (stereo not drawn) [MWAC-0001785, CN1C(=O)C(O)(CC(=O)c2ccc(Cl)cc2)c3cc(Br)cc(C)c13]",4.25
3,"COCCCNC(=O)/C(C#N)=C/c1cc(C)n(-c2ccc(F)cc2)c1C [MWAC-0001826, COCCCNC(=O)\C(=C\c1cc(C)n(c1C)c2ccc(F)cc2)\C#N]",5
4,"COc1ccc(C(=O)NNC(=O)Cc2ccc(-c3ccccc3)cc2)cc1 [MWAC-0001846, COc1ccc(cc1)C(=O)NNC(=O)Cc2ccc(cc2)c3ccccc3]",0.595
5,"CCCN1C(=O)C(O)(CC(=O)c2ccccc2OC)c2cc(Br)ccc21 (stereo not drawn) [MWAC-0001769, CCCN1C(=O)C(O)(CC(=O)c2ccccc2OC)c3cc(Br)ccc13]",2.64
6,"O=C(Nc1ccc(Cl)cc1)N1CCc2ccccc21 [MWAC-0001717, Clc1ccc(NC(=O)N2CCc3ccccc23)cc1]",6
7,"O=C(Nc1nc2ccccc2[nH]1)c1ccc(Br)o1 [MWAC-0001805, Brc1oc(cc1)C(=O)Nc2nc3ccccc3[nH]2]",9
8,"CCOC(=O)N1CCN(c2nncc(-c3ccc4ccccc4c3)n2)CC1 [MWAC-0001757, CCOC(=O)N1CCN(CC1)c2nncc(n2)c3ccc4ccccc4c3]",38
9,"CCc1cccc2c(/C=C3\C(=O)Nc4ccccc43)c[nH]c12 [MWAC-0001851, CCc1cccc2c(\C=C\3/C(=O)Nc4ccccc34)c[nH]c12]",2.36
10,"CSc1cccc(NC(=O)c2cnn3ccccc23)c1 [MWAC-0001883, CSc1cccc(NC(=O)c2cnn3ccccc23)c1]",0
11,"CCc1cc2c3c(c1)C1(C(=O)N3C(C)(C)C=C2C)C(C#N)=C(N)Oc2[nH]c(=O)[nH]c(=O)c21 (stereo not drawn) [MWAC-0001786, CCc1cc2C(=CC(C)(C)N3C(=O)C4(C(=C(N)OC5=C4C(=O)NC(=O)N5)C#N)c(c1)c23)C]",4
12,"CCc1ccc(C2CC(c3ccc(OC)c(OC)c3)=NN2C(C)=O)cc1 (stereo not drawn) [MWAC-0001733, CCc1ccc(cc1)C2CC(=NN2C(=O)C)c3ccc(OC)c(OC)c3]",7
13,"Cc1cc(C(=O)COn2nnc3ccc(Cl)cc32)c(C)n1-c1ccc2c(c1)OCO2 [MWAC-0001837, Cc1cc(C(=O)COn2nnc3ccc(Cl)cc23)c(C)n1c4ccc5OCOc5c4]",26
14,"COc1ccc(C=O)cc1OS(=O)(=O)c1ccc(C)cc1 [MWAC-0001771, COc1ccc(C=O)cc1OS(=O)(=O)c2ccc(C)cc2]",3.71
15,"Cc1ccc(-c2cn3ccc4ccccc4c3n2)cc1 [MWAC-0001723, Cc1ccc(cc1)c2cn3ccc4ccccc4c3n2]",8
16,"CCOc1ccccc1N1C(=O)CC(Sc2nnc(-c3ccccc3)[nH]2)C1=O (stereo not drawn) [MWAC-0001798, CCOc1ccccc1N2C(=O)CC(Sc3nnc([nH]3)c4ccccc4)C2=O]",2.63
17,"CC(C)(C)N1C(=O)c2ccc(C(=O)Nc3cccc(O)c3)cc2C1=O [MWAC-0001722, CC(C)(C)N1C(=O)c2ccc(cc2C1=O)C(=O)Nc3cccc(O)c3]",5.66
18,"O=C(Nc1nccs1)c1ccc(F)cc1[N+](=O)[O-] [MWAC-0001876, [O-][N+](=O)c1cc(F)ccc1C(=O)Nc2nccs2]",0
19,"CC(=O)N(/N=C1\Sc2ccccc2C1=O)c1ccccc1C [MWAC-0001741, CC(=O)N(\N=C\1/Sc2ccccc2C1=O)c3ccccc3C]",36
20,"O=Cc1ccccc1OCc1ccc2c(c1)OCO2 [MWAC-0001842, O=Cc1ccccc1OCc2ccc3OCOc3c2]",11
21,"CCc1ccc(C(=O)Cn2c(C)nc([N+](=O)[O-])c2Br)cc1 [MWAC-0001880, CCc1ccc(cc1)C(=O)Cn2c(C)nc(c2Br)[N+](=O)[O-]]",0
22,"O=C1/C(=C/c2ccc3c(c2)OCO3)SC(=S)N1Cc1cccnc1 [MWAC-0001792, O=C1N(Cc2cccnc2)C(=S)S/C/1=C\c3ccc4OCOc4c3]",14
23,"CC(=O)C1=C(O)C(=O)N(c2ccc(Br)cn2)C1c1ccc(Cl)cc1 (stereo not drawn) [MWAC-0001809, CC(=O)C1=C(O)C(=O)N(C1c2ccc(Cl)cc2)c3ccc(Br)cn3]",16
24,"O=C(CCl)NC(c1ccccc1)c1ccc(Cl)cc1 (stereo not drawn) [MWAC-0001861, ClCC(=O)NC(c1ccccc1)c2ccc(Cl)cc2]",67
25,"CCN(CC)c1ccc(/C=N/n2c(S)nnc2-c2cccnc2)c(O)c1 [MWAC-0001796, CCN(CC)c1ccc(\C=N\n2c(S)nnc2c3cccnc3)c(O)c1]",9
26,"Cc1c(C(=O)N2CCCCC2C)sc2nc(-c3ccc(F)cc3)cn12 (stereo not drawn) [MWAC-0001747, CC1CCCCN1C(=O)c2sc3nc(cn3c2C)c4ccc(F)cc4]",5.44
27,"N#Cc1ccccc1CN1C(=O)C(=O)c2ccccc21 [MWAC-0001764, O=C1N(Cc2ccccc2C#N)c3ccccc3C1=O]",7

row,Compound,% inhibition (20 µM) biochemical [%]
1,"CCOc1ccccc1N1CCN(C(=O)c2ccc(Cl)c([N+](=O)[O-])c2)CC1 [MWAC-0001782, CCOc1ccccc1N2CCN(CC2)C(=O)c3ccc(Cl)c(c3)[N+](=O)[O-]]",0.51
2,"O=C(CCl)NCCOc1ccccc1 [MWAC-0001864, ClCC(=O)NCCOc1ccccc1]",58
3,"Nc1c(C(=O)c2ccccc2)sc2nc(C3CC3)cc(-c3ccco3)c12 [MWAC-0001875, Nc1c(sc2nc(cc(c3occc3)c12)C4CC4)C(=O)c5ccccc5]",0
4,"CCOc1ccc(C2NC(=O)c3[nH]nc(-c4cccc(OC)c4)c32)cc1 (stereo not drawn) [MWAC-0001753, CCOc1ccc(cc1)C2NC(=O)c3[nH]nc(c4cccc(OC)c4)c23]",18
5,"CCOC(=O)c1ccc(NC(=O)CSc2nnc(-c3ccccc3OCC)o2)cc1 [MWAC-0001774, CCOC(=O)c1ccc(NC(=O)CSc2oc(nn2)c3ccccc3OCC)cc1]",5.5
6,"CCOc1ccc(-c2nc(CSc3nnc(N)[nH]3)cs2)cc1 [MWAC-0001853, CCOc1ccc(cc1)c2nc(CSc3nnc(N)[nH]3)cs2]",1.25
7,"CC1=CC(C)(C)N2C(=O)C(=O)c3cc(OC(=O)c4cccc(F)c4)cc1c32 [MWAC-0001768, CC1=CC(C)(C)N2C(=O)C(=O)c3cc(OC(=O)c4cccc(F)c4)cc1c23]",2.41
8,"O=C(CCl)Nc1cn(-c2ccccc2)nc1-c1ccc(F)cc1 [MWAC-0001848, Fc1ccc(cc1)c2nn(cc2NC(=O)CCl)c3ccccc3]",13
9,"Cc1cc(C(=O)CCl)c(C)n1CCc1cccs1 [MWAC-0001825, Cc1cc(C(=O)CCl)c(C)n1CCc2cccs2]",56
10,"NC(=O)c1ccccc1NC(=O)/C=C/C(=O)O [MWAC-0001765, NC(=O)c1ccccc1NC(=O)\C=C\C(=O)O]",6.4
11,"CCOC(=O)c1ccc(NC(=O)N2CCc3ccccc32)cc1 [MWAC-0001787, CCOC(=O)c1ccc(NC(=O)N2CCc3ccccc23)cc1]",3.21
12,"Fc1nc(F)c(F)c(SC(=S)N2CCOCC2)c1F [MWAC-0001725, Fc1nc(F)c(F)c(SC(=S)N2CCOCC2)c1F]",3.69
13,"CCOc1ccccc1C1Nc2ccccc2NC2=C1C(=O)CC(c1ccccc1)C2 (stereo not drawn) [MWAC-0001718, CCOc1ccccc1C2Nc3ccccc3NC4=C2C(=O)CC(C4)c5ccccc5]",0
14,"Cc1cc(CNC(=O)CCl)cc(C)c1O [MWAC-0001858, Cc1cc(CNC(=O)CCl)cc(C)c1O]",45
15,"O=C1NC(=O)C(=Cc2cc(Br)ccc2OCc2cccc(F)c2)C(=O)N1 [MWAC-0001793, Fc1cccc(COc2ccc(Br)cc2C=C3C(=O)NC(=O)NC3=O)c1]",4
16,"O=C(CCC(=O)Nc1ccc2c(c1)OCCO2)Nc1ccc(OCc2ccccc2)cc1 [MWAC-0001840, O=C(CCC(=O)Nc1ccc2OCCOc2c1)Nc3ccc(OCc4ccccc4)cc3]",3
17,"CCCN1C(=O)C(O)(CC(=O)c2cc(OC)ccc2OC)c2cc(Br)ccc21 (stereo not drawn) [MWAC-0001752, CCCN1C(=O)C(O)(CC(=O)c2cc(OC)ccc2OC)c3cc(Br)ccc13]",33
18,"COc1ccccc1N1CCN(C(=O)CCl)CC1 [MWAC-0001823, COc1ccccc1N2CCN(CC2)C(=O)CCl]",98
19,"Cc1ccc2nc(N3C(=O)C(O)=C(C(=O)c4ccco4)C3c3ccco3)sc2c1 (stereo not drawn) [MWAC-0001821, Cc1ccc2nc(sc2c1)N3C(C(=C(O)C3=O)C(=O)c4occc4)c5occc5]",16
20,"Cc1ccc(COc2ccc([N+](=O)[O-])cc2C=O)cc1 [MWAC-0001790, Cc1ccc(COc2ccc(cc2C=O)[N+](=O)[O-])cc1]",7
21,"CCCCN1C(=O)C(O)(CC(=O)c2cccc(OC)c2)c2cc(Br)ccc21 (stereo not drawn) [MWAC-0001744, CCCCN1C(=O)C(O)(CC(=O)c2cccc(OC)c2)c3cc(Br)ccc13]",10
22,"CC(=O)Nc1ccc(OS(=O)(=O)c2ccc(Cl)c3ccccc23)cc1 [MWAC-0001803, CC(=O)Nc1ccc(OS(=O)(=O)c2ccc(Cl)c3ccccc23)cc1]",1.42
23,"CC(C)c1cc(NC(=O)CCl)cc(C(C)C)c1O [MWAC-0001888, CC(C)c1cc(NC(=O)CCl)cc(C(C)C)c1O]",80
24,"CN1C(=O)C(=Cc2cc(O)ccc2Br)C(=O)N(C)C1=O [MWAC-0001799, CN1C(=O)N(C)C(=O)C(=Cc2cc(O)ccc2Br)C1=O]",5.42
25,"Cc1ccc(Cc2cnc(NC(=O)c3cccs3)s2)cc1 [MWAC-0001882, Cc1ccc(Cc2cnc(NC(=O)c3cccs3)s2)cc1]",0
26,"COc1ccc(OC)c(NC(=O)CSc2nc3cc4c(cc3cc2C#N)OCCO4)c1 [MWAC-0001834, COc1ccc(OC)c(NC(=O)CSc2nc3cc4OCCOc4cc3cc2C#N)c1]",5.66
27,"COc1ccc(C2=NN3C(C2)c2ccccc2OC32C(=O)Nc3ccccc32)cc1OC (stereo not drawn) [MWAC-0001819, COc1ccc(cc1OC)C2=NN3C(C2)c4ccccc4OC35C(=O)Nc6ccccc56]",0.611
